According to a melting point compilation (Tetko et al.; mined from patent text by program, amines drawn as free bases though some values may be those of a salt):

| melting point [°C] | Structure (SMILES) |
| --- | --- |
| 130 to 137 | COc1cc2c(c3c1OC(C)(C)C3)C(c1ccc(NC(=O)c3cccnc3)cc1)=NC(C)(C)C2 |
| 125 | COC(=O)c1ccc(C(=O)NCc2cccc3ccccc23)s1 |
| 46 to 62 | CON1C(=O)CC2(CCN(C(=O)C3=CN(C)C=CC3)CC2)C1=O |
| 100 to 101 | CCCCCCCCCCCCCCCCS(=O)(=O)N[C@H]1CCCNC(=O)C1 |
| 84 to 85 | CCCCCCCCCCCCn1nnc(C(=NOC)C(=O)Nc2c(OC)cc(OC)cc2OC)n1 |
| 100 to 105 | CCNc1nc(SC)ncc1C=Nc1cc(OC)cc(OC)c1 |
| 182 to 184 | CNc1ccc2[nH]c3cc(-c4ccccc4Cl)c4c(c3c2c1)C(=O)NC4=O |
| 158 to 159 | COC(CN/C=C\C(=C(C#N)C#N)c1ccc2cc(N(C)C)ccc2c1)OC |
| 79 to 80 | CCCC(=O)NCCC1CCc2cc(OC)ccc21 (single isomer, unassigned; (-)) |
| 170 to 172 | CCOC(=O)c1cccc(-c2nc(=O)c3ccccc3s2)n1 |
| 137 to 138 | COC(=O)[C@H](CCC(=O)O)N1C(=O)c2ccccc2C1=O |
| 135 to 137 | CC(=O)Nc1nc(CS(=O)(=O)c2ccc(N)cc2)cs1 |
| 160 to 162 | CN1N=C(c2ccc(F)cc2)c2ccc(C(F)(F)F)cc2CS1(=O)=O |
| 112 to 113 | Nc1ccc(F)c(-c2cccnc2)c1F |
| 168 to 169 | CC1(C(=O)O)c2ccccc2-c2ccccc21 |
| 196 | COc1ccc(N(C)CC(=O)O)c(C(=O)O)c1 |
| 129 to 133 | CCc1nc2c(cnn2CC)c(NC2CCOCC2)c1CNC(=O)c1cccc(C(=O)NCc2ccc(F)c(-c3cccc(CN4CC5CC4CN5)c3)c2)c1 (stereo not given) |
| 144 to 146 | CSc1nnc(-c2ccc(F)cc2)c(-c2ccc(N(C)C)cc2)n1 |
| 191 to 192 | Cc1cccc(-c2nc3ccc(N(C)C)nn3c2-c2ccnc(NC3CCCCC3)c2)c1 |
| 126 to 128 | COc1ccc2c(c1)OCC(=Cc1cccnc1)C2=O |
| 162 to 164 | C#Cc1ccc(CO[C@@H]2COc3nc([N+](=O)[O-])cn3C2)cc1 |
| 137 to 140 | C1COC2(OC1)OCCCO2 |
| 294 | O=c1c2ccccc2n(-c2cccc([N+](=O)[O-])c2)c2nc3ccccc3n12 |
| 50 to 53 | CSc1sc2ccccc2c1C=O |
| > 325 | N#Cc1ccc2c(c1)C(c1ncnc3nn(C4CCCCC4)cc13)C(=O)N2 (stereo not given) |

| melting point [°C] | Structure (SMILES) |
| --- | --- |
| 107 to 109 | COc1ccc(C(=O)C2CCC(CCO)CC2)cc1O (stereo not given) |
| 90 | CCCc1c(OCCOc2cccc(C(=O)NCCCCc3cccnc3)c2)ccc(C(C)=O)c1O |
| 57 to 59 | CNN(Cc1ccccc1N)c1ccccc1 |
| 130 to 132 | CCN1c2ncccc2C(=O)N(C)c2cccnc21 |
| 54 to 58 | COc1ccccc1CN[C@H]1CCCN(CC=Cc2ccccc2)[C@H]1c1ccccc1 (relative stereo) |
| 182 | CC(C)CCC(=O)N[C@H]1CC[C@H](CCN2CCN(c3nccc4c3CCO4)CC2)CC1 |
| 208 to 209 | Cc1nc(-n2ccc(OCc3ccccc3)cc2=O)sc1C(=O)NCc1cccnc1 |
| 151 to 155 | COc1ccc2[nH]cc(S(=O)(=O)c3ccccc3)c2c1 |
| 117 to 121 | c1ccc2c(c1)NC(CN1CCOCC1)CO2 (stereo not given) |
| 110 to 111 | COc1cc(C)c(Br)cc1OCc1ccccc1 |
| 267 to 270 | O=c1[nH]c2cscc2c(=O)c2cscc12 |
| 98 to 99 | OCc1coc(-c2cccs2)n1 |
| 139 to 141 | COC(=O)NCC1Cc2c(Cl)cc3c(c2O1)CCC3 (stereo not given) |
| 144 to 145 | N#Cc1sc2ncccc2c1Cl |
| 115 to 118 | CCC(CC)[C@@H](CO)NS(=O)(=O)c1ccc(Cl)s1 |
| 83 to 85 | CCc1nn(-c2ccc(Cl)nn2)c(CC)c1[N+](=O)[O-] |
| 87 to 89 | N#Cc1ccccc1N1CCN(C[C@@H](O)COc2cccc(-c3noc4ccsc34)c2)CC1 |
| 233 to 235 | Cc1ccccc1C(=O)Nc1ccc(C(=O)N2CCCC(CN)c3ccccc32)cc1 (stereo not given) |
| 106 to 107 | Cc1c(C)n(CCF)c2c(OCc3ccccc3)nncc12 |
| 140 | CCC(=O)Nc1ccc(C)c(O)c1C |
| 89.5 to 92 | COC(=O)c1ccc(CO)cc1SCc1ccccc1 |
| 90 to 92 | CCc1c(C)nc2c(C)cccn2c1=O |
| 50 to 51 | COc1ccc(C2COC(=O)C2CSC2CCCCC2)cc1 (stereo not given) |
| 239 to 242 | OC1CCN(CCCOc2ccc3cc(-c4n[nH]c5cc(-c6ccccc6)sc45)[nH]c3c2)CC1 |
| 126 to 127 | CCOC(=O)n1c(SC(F)(F)C(F)F)nc(-c2ccccc2)c1-c1ccccc1 |

| melting point [°C] | Structure (SMILES) |
| --- | --- |
| 138 | O=C1N(c2c(Cl)cccc2Cl)Cc2cnc(Nc3ccccc3)nc2N1c1ccccc1 |
| 135 | CC(=O)Oc1cc2c(cc1F)C1(OC(=O)c3c1ccc(N)c3N)c1cc(F)c(OC(C)=O)cc1O2 |
| 156 | COc1cc(OC)cc(C(C)N(C)CCCOc2ccc(S(=O)(=O)c3c(C(C)C)c4ccccc4n3C)cc2)c1 (stereo not given) |
| 220 to 223 | O=C(CNc1ccc2[nH]c(=O)oc2c1)N1CCC(Oc2ccccc2)CC1 |
| 103 to 105 | CN(C)C(=O)CCc1ccc(OCCN(C)c2nc3ccccc3o2)cc1 |
| 125 to 130 | O=C(CBr)c1cc2ccccc2[nH]1 |
| 135 to 137 | CSc1sc(C=O)cc1C=O |
| 108 to 110 | CC(C)(C)NCC(O)COc1cccc(C#N)c1 (stereo not given) |
| 81 to 83 | CN=Cc1cnc(-c2ccccc2Cl)s1 |
| 124 to 127 | CSc1ncc(CO)c(N)n1 |
| 192 to 194 | O=c1cc(Cc2c[nH]c3ccccc23)[nH]n1C1CCCCC1 |
| 65 to 67 | OCCc1cc(C(O)CNCCCCCOCCCCc2ccccc2)ccc1O (stereo not given) |
| 185 to 186 | COc1ccc(-c2[nH]c(-c3ccncc3)c(C)c2C(C)=O)cc1 |
| 190 to 195 | CC(C)(C)OC(=O)Nc1ccc(NC(=O)CCCCC2CCSS2)cc1 (stereo not given) |
| 73.5 to 77 | COc1ccccc1Oc1c(NS(=O)(=O)c2ccc(C(C)(C)C)cc2)nc(OCCO)nc1OCCOc1ncc(Br)cn1 |
| 196 to 197 | CC1(C)CCC(C)(C)c2cc(C(N)C(=O)Nc3ccc(C(=O)OCc4ccccc4)cc3)ccc21 (stereo not given) |
| 96 to 99 | Cc1c(-c2ccccc2)nn(C(C)(C)C(=O)N(C)C)c1Cl |
| 94 to 95 | CCc1noc(NS(=O)(=O)c2ccccc2)c1C |
| 150 | COc1ccc(Nc2ccnc(F)c2)cc1 |
| 247 to 250 | Cc1cc(N2CCN(c3ccccc3)CC2)c2c(N)c(C(N)=O)sc2n1 |
| 145 to 147 | Cc1cc(Oc2c([N+](=O)[O-])cc([N+](=O)[O-])cc2C(F)(F)F)n[nH]1 |
| 82 to 85 | CC1(C)C(C=NOCC2CC2)C1C(=O)O (stereo not given) |
| 199 to 200 | Cc1ccc2oc(-c3ccccc3-c3nnnn3C(c3ccccc3)(c3ccccc3)c3ccccc3)c(Br)c2c1 |
| 219 | Clc1ccc(-c2nc(Sc3cccs3)[nH]c2-c2ccc(Cl)cc2)cc1 |

| Structure (SMILES) | melting point [°C] |
| --- | --- |
| O=C(O)C[S@](=O)C(c1ccccc1)c1ccccc1 | 118 to 120 |
